Results published in US20030045508A1, “(1r,cis)-4-(4-amino-7h-pyrrolo'2,3-i(d) pyrimidine-7-yl)-2-cyclopentene-1-methanol derivatives as antiviral” (priority 2002, published 2003).

Tests used:
[1] = Acid stability (acid-mediated hydrolytic decomposition, simulated stomach conditions); format: physicochemical; settings: 0.1 N hydrochloric acid at 25° C.
Experimental: The compound of Example 3 was tested for stability towards acid-mediated hydrolytic decomposition employing a test designed to simulate stomach conditions. The compound was incubated at an initial concentration of 0.27 mg/mL in dilute hydrochloric acid at pH 1 for 72 hours at 37° C. HPLC was run immediately for t=0 and at intervals up to approximately 72 hours.
In contrast, the phosphoramidate of 2′,3′-dideoxy-adenosine (Compound 1093, PCT/GB9600580) had entirely decomposed by t=13 hours and 2′,3′-didehydro-2′,3′-dideoxy-adenosine (Compound 1001, PCT/GB96/00580) had entirely decomposed at t=0 in 0.1 N hydrochloric acid at 25° C.

SMILES	melting point [°C]	time t at which entirely decomposed [1] [h]
Nc1ncnc2c1ccn2[C@@H]1C=C[C@H](CO)C1 [Example 1, (+)-(1R, cis)-4-[4-Amino-7H-pyrrolo(2,3-d)pyrimidin-7-yl]-2-cyclopentene-1-methanol]	165 to 168	
Nc1ncnc2c1ncn2[C@H]1C=C[C@@H](CO)O1 [Compound 1001, 2′,3′-didehydro-2′,3′-dideoxy-adenosine]		0
